Measured values taken from patent US9687480B2, “Chiral 1-(4-methylphenylmethyl)-5-oxo-{N-[(3-t-butoxycarbonyl-aminomethyl)]-piperidin-1-yl)-pyrrolidine as inhibitors of collagen induced platelet activation and adhesion” (Council of Scientific & Industrial Research, priority 2011, dated 2017).
Values joined by “and” are separate entries in the source; they are usually repeats but may differ in a detail not shown here. Equal values may be shown once. Read-outs that look alike come from different tables or passages of the source.

What was measured:
[1] = tested on: human platelet rich plasma (TRAP induced aggregation); test: TRAP (SFLLRN) induced platelet aggregation, human platelet rich plasma (in vitro); format: cell-based; details: for IC50: human PRP, 25 μM TRAP, read-out: TRAP induced platelet aggregation studies (Human) IC50; for effect on TRAP induced platelet aggregation: up to 300 μM
Procedure: The reaction was allowed to proceed for at least 5 min, and the extent of aggregation was expressed in light-transmission units (Ivandic B T, Schlick P, Starltz P, Kurz K, Katas H A, Giannitsis E. Determination of clopidogrel resistance by whole blood platelet aggregometry and inhibitors of the P2Y12 receptor. Clinical Chemistry 2006: 52:383-88).
The percentage of aggregation was calculated by using following formula: Percent Aggregation=A/B×100 Where, A is the number of division traversed by the label on chart in the presence of Inducer & B is the total number of divisions (80). Platelet Aggregation Studies (FIG. 3) a) Platelet Aggregation (Human, In Vitro) (FIG. 3a (i) (ii) (iii))

hamster platelets = test: Platelet adhesion on collagen coated surface (hyperlipidemic hamster model, ex vivo); format: in vivo, hamsters; details: for platelet adhesion over collagen coated surface: hyperlipidemic hamsters, ex vivo; for Platelet adhesion hyperlipidemic hamsters: Table 2 summary
Procedure: Platelet adhesion to collagen was measured in polystyrene 96-well micro titer plates. Micro titer plates were coated with insoluble equine tendon native fibrillar type I collagen (Chrono-Log Corp. Havertown, USA), 2 μg/well in 5 mM acetic acid (Tandon N N, Ockenhouse C F, Greco […]. Adhesive functions of platelet lacking GPIV (CD36). Blood 1991; 78: 2809-13) overnight at 4° C. The unoccupied protein binding sites on the wells were blocked with 0.5% BSA in Tyrode's-HEPES buffer (136.7 mM NaCl, 13.8 mM NaHCO3. 0.36 mM NaH2PO4.H2O, 2.6 mM KCl, 1.0 mM MgCl2.6H2O, 5.5 mM glucose, pH 7.4) at room temperature for 1 hour, and then rinsed once with PBS. Washed platelets were suspended in the Tyrode's-HEPES buffer and added to the wells (2×10^7 cells/well) for 1 h at room temperature. After three washes with PBS, the number of adherent platelets was evaluated colorimetrically (Bellavite P., Andrioli G., Gizzo P., Arigliano P., Chirumbolo […] colorimetric method for the measurement of platelet adhesion in microtiter plates. Anal. Blochem. 1994; 216:444-450). Briefly, 150 μl of a 0.1 M citrate buffer (pH 5.4), containing 5 mM p-nitrophenyl phosphate and 0.1% TritonX-100 was added to the wells after washing. After incubation for 30 minutes at 25° C. in the absence of ambient light, colour was developed by the addition of 100 μl of 2N NaOH and the absorbance at 405 nm was read using a microplate reader (Powerware XS, Biotek, USA).

in vivo = format: in vivo, rabbits; details: for AUC / Cmax / MRT / Tmax: 20 mg/kg
Procedure: In-vivo pharmacokinetic parameters were generated in male NZ rabbits at a dose of 20 mg/kg by oral route of administration. The blood samples were drawn at 0.25, 0.5, 0.75, 1, 1.5, 2, 4, 6, 8, 10, 12, 18 and 24 hr post dose, processed and analyzed by Liquid Chromatography-Mass Spectrometry (LC-MS). Plasma concentration at different time points were plotted to give Plasma Concentration Time Profile and the data was fitted non-compartmentally using Win NonLin 5.1 version software and the estimates of pharmacokinetic parameters were derived with SD mean values. Maximum plasma concentration (Cmax), time to achieve maximum plasma concentration (tmax).

rats = test: Arterio-venous shunt model in rats; format: in vivo; details: for Arterio-venous shunt model in rat: Table 2 summary; for thrombus weight: rats, given 1 hr prior to shunt
Source text: Rats were grouped into control, aspirin and test compound group, each group having six animals. Rats were anesthetized with urethane (1.25 g/kg). Cervical incision was made and carotid artery and its contra lateral jugular vein was exposed to prepare a shunt by using polyethylene tubes. Two 7 cm siliconized polyethylene tubes (0.5/1.0 mm inner/outer diameter) were linked to a central 6 cm silicon tube (1.0/1.5 mm, inner/outer diameter) containing a 5 cm silk thread (pre-weighed) and were filled with saline. The shunt assembly was cannulated between the jugular vein and contra-lateral carotid artery and blood was allowed to circulate through the shunt. Blood flow through the shunt was maintained for 10 minutes, subsequently the central part of the shunt was removed and silk thread having thrombus deposit was taken out and weighed. The thrombus adhered/deposited on thread was calculated by subtracting the wet weight of the silk thread. The standard drugs and test compounds were given 1 hr prior to the establishment of arterio-venous shunt (Tohti I, Tursun M, Umar A, Turdi S, Imin H, Moore N. Aqueous extracts of Ocimum basilicum L. (sweet basil) decrease platelet aggregation induced by ADP and thrombin in vitro and rats arterio-venous shunt thrombosis in vivo. Thrombosis Res. 2006; 118: 733-739).

[2] = tested on: hamster whole blood (Collagen 2.5 μg/ml); test: Whole blood aggregation in hyperlipidemic hamsters (ex vivo), collagen induced; details: Table 2 summary
[3] = male, NZ, rabbit, in vivo, as stated in the summary text, read-out: tmax

Compound | inhibition of TRAP induced platelet aggregation ([1]; at 100 μM) | platelet adhesion over collagen coated surface (hamster platelets) | AUC (in vivo; male NZ rabbits, oral) [ng·h/mL] | Cmax (in vivo; male NZ rabbits, oral) | MRT (in vivo; male NZ rabbits, oral) [h] | Tmax (in vivo; male NZ rabbits, oral) [min] | IC50 ([1]; Platelet) [µM] | effect on TRAP induced platelet aggregation [1] | Arterio-venous shunt model in rat (rats) | thrombus weight (rats) | Platelet adhesion hyperlipidemic hamsters (hamster platelets) | prolonged systemic exposure (in vivo; as stated in the summary text) | Tmax (in vivo; [3]) [min] | Whole blood aggregation in hyperlipidemic hamsters [2] | IC50 [1] [µM]
Cc1ccc(CN2C(=O)CC[C@H]2C(=O)N2CCCC(CNC(=O)OC(C)(C)C)C2)cc1 (some centres unmarked) [Compound 1, 1-(4-methylphenylmethyl)-5-oxo-{N-[(3-t-butoxycarbonyl-aminomethyl)]-piperidin-1-yl}-pyrrolidine-2-carboxamides] | significant inhibition | significant reduction | 6524.15 | 947.02 ± 237.4 ng/mL | 16.20 | 40.8 | – | – | – | – | – | – | – | – | –
Cc1ccc(CN2C(=O)CC[C@H]2C(=O)N2CCC[C@@H](CNC(=O)OC(C)(C)C)C2)cc1 [Compound 6] | – | significant inhibition | 874.8 | 149.49 ± 53.12 ng/mL | 5.25 | 45 | > 500 | did not exhibit any effect | Protective | reducing the thrombus weight significantly | Effective | more than 24 hrs | 45 ± 8.64 | Effective | –
1-(4-methylphenylmethyl)-5-oxo-{N-[(3-t-butoxycarbonyl-aminomethyl)]-piperidin-1-yl}-pyrrolidine-2-carboxamides [Compound 1] | – | – | – | – | – | – | – | – | Protective | – | Effective | – | – | Effective | > 100
Cc1ccc(CN2C(=O)CC[C@H]2C(=O)N2CCC[C@H](CNC(=O)OC(C)(C)C)C2)cc1 [Compound 7, (2S)-1-(4-methylphenylmethyl)-5-oxo-(3R)-{N-[(3-t-butoxycarbonyl-aminomethyl)]-piperidin-1-yl}-pyrrolidine-2-carboxamide] | – | no effect | 1112.81 | 112.81 ± 169.77 ng/mL and 112.40 ng/mL | 16.20 | 520 | > 500 | did not exhibit any effect | Protective | reducing the thrombus weight significantly | No effect | – | 520 ± 39.6 | No effect | –
